In patent US7816408B2, “Calcium receptor active compounds” (NPS Pharmaceuticals, Inc., priority 2002, dated 2010):

Assays:
[1] = molecular target: T1, human calcium receptor (Homo sapiens, UniProt P41180); test: Activity on calcium receptors: fluo-3 fluorescence in HEK293 cells transfected with human calcium receptor gene; type: cell-based; conditions: HEK293 cells transfected with plasmid pHuPCaR4.0 (human calcium receptor gene), loaded with fluo-3; 1 mM CaCl2, 1 mM MgCl2
T1 construct: expressed in transfected cells; host or cells: HEK293
T1 sequence (P41180 20-1078): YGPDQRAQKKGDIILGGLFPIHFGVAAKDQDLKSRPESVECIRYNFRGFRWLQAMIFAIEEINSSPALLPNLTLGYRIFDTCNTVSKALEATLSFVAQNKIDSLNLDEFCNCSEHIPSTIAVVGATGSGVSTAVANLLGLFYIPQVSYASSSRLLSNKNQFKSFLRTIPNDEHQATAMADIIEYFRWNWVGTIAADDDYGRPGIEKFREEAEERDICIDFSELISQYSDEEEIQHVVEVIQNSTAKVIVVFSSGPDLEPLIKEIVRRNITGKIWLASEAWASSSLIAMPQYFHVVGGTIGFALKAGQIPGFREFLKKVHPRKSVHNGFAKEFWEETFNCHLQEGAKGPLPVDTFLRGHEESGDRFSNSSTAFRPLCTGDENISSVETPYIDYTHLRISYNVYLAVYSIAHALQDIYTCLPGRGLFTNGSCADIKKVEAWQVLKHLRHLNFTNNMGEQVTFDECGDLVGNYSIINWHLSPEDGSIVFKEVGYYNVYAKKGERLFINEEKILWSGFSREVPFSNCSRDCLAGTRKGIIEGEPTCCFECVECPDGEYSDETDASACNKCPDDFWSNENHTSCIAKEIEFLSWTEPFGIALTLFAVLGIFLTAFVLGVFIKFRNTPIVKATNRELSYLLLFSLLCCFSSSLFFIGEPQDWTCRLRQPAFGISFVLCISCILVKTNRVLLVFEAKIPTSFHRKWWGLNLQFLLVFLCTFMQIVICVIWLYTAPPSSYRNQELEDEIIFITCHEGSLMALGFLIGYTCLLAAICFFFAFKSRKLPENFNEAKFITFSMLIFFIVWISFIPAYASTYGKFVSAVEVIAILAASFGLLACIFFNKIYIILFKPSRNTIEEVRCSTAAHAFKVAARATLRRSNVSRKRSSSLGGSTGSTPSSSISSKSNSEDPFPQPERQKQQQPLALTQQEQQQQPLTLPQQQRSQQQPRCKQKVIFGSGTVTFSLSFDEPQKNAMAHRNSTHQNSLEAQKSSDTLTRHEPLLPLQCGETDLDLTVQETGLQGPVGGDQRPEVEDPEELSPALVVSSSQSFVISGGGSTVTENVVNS
Experimental: The activities of the compounds of the present invention on calcium receptors were measured. The measurement was performed in accordance with the method described in Example 4 of Nemeth et al., PCT/US95/13704 (International Publication No. WO96/12697). In brief, HEK293 cells were transfected with a plasmid pHuPCaR4.0 containing a human calcium receptor gene and loaded with fluo-3. The loading was carried out by incubating the cells at 37° C. for 1 hour in Dulbecco's modified Eagle's medium which contained about 5 μM of fluo-3/AM and had been buffered with 20 mM HEPES. Next, the cells were rinsed with Hank's balanced salt solution which contained 1 mM CaCl2 and 1 mM MgCl2 and had been buffered with 20 mM HEPES. Then each test compound was added to the cells and the fluorescence was measured with the use of an excitation wavelength of 485 nm and an emission wavelength of 540 nm.

[2] = tested on: normal male SD rats; test: Plasma Ca^2+ level of rats after single oral administration; type: in vivo; conditions: rat, mean of six animals, vehicle 10% cyclodextrin (** 1% sodium-CMC); for Plasma Ca^2+ (mmol/l) 1 hr: 1 hr after single oral dose 30 μmol/kg; for Plasma Ca^2+ (mmol/l) 2 hr: 2 hr after single oral dose 30 μmol/kg; for Plasma Ca^2+ (mmol/l) 4 hr: 4 hr after single oral dose 30 μmol/kg; for Plasma Ca^2+ (mmol/l) 8 hr: 8 hr after single oral dose 30 μmol/kg
Experimental: The compound of the present invention was administered to rats so as to examine the effects of the compound on the plasma calcium ion level and serum PTH level. The test was performed by orally administering single dose of the compound of the invention or a control compound to normal male SD rats with six animals in each group.
To the group 1 was administered as a control a 10% cyclodextrin aqueous solution in a dose of 2.5 ml/kg. To the group 2 was administered as a reference (R)-N-(3-(2-chlorophenyl)propyl)-1-(3-methoxyphenyl)ethylamine (KRN568) dissolved in a 10% cyclodextrin aqueous solution in a dose of 30 μmol/kg. To the group 3 was administered the compound of the present invention dissolved in a 10% cyclodextrin aqueous solution in a dose of 30 μmol/kg, provided that 1% sodium-CMC aqueous solution was used in place of 10% cyclodextrin aqueous solution for the compounds marked with ** in Table 2.
Blood of each rat was collected from the tail tip before the administration and 30 minutes and 1, 2, 4, 8 and 24 hours thereafter (or at the time indicated in Table 2), and the plasma Ca^2+ level and serum PTH level were measured. The data of the serum PTH level were statistically processed by the multiple comparison analysis in accordance with Steel's calibration by using the group 1 as the control.

Row | SMILES | EC50 [1] | Plasma Ca^2+ (mmol/l) 1 hr [2] | Plasma Ca^2+ (mmol/l) 2 hr [2] | Plasma Ca^2+ (mmol/l) 4 hr [2] | Plasma Ca^2+ (mmol/l) 8 hr [2] | Plasma Ca^2+ (mmol/l) 24 hr ([2]; 24 hr after single oral dose 30 μmol/kg)
1 | CCCCCCOc1cccc(C(C)NCCSc2cc(Cl)ccc2Cl)c1 (racemic) [Compound K-2255, (±)-N-(1-(3-n-hexyloxyphenyl)ethyl)-2-(2′,5′-dichlorophenylthio)ethylamine] | 9600 nM | 1.328 mmol/L | 1.212 mmol/L | 1.177 mmol/L | 1.232 mmol/L | 
2 | CC(NCCSc1cc(Cl)ccc1Cl)c1cccc(OCc2ccc(Cl)cc2)c1 (racemic) [Compound K-2258, (±)-N-(1-(3-(4-chlorobenzyloxy)phenyl)ethyl)-2-(2′,5′-dichlorophenylthio)ethylamine] | 380 nM | 1.317 mmol/L | 1.227 mmol/L | 1.133 mmol/L | 1.207 mmol/L | 
3 | C[C@@H](NCCCCCSc1ccc(Cl)cc1)c1cccc2ccccc12 [Compound K-2027, N-{5-[(4-chlorophenyl)thio]pentyl}-N-[(1R)-1-(1-naphthyl)ethyl]amine] | 390 nM | 1.197 mmol/L | 1.102 mmol/L | 0.995 mmol/L | 1.048 mmol/L | 1.363 mmol/L
4 | C[C@@H](NCCCCCSc1ccc(F)cc1)c1cccc2ccccc12 [Compound K-2052, N-{5-[(4-fluorophenyl)thio]pentyl}-N-[(1R)-1-(1-naphthyl)ethyl]amine] | 5700 nM | 1.283 mmol/L | 1.187 mmol/L | 1.087 mmol/L | 1.185 mmol/L | 
5 | C[C@@H](NCCCCSc1cccc(C(F)(F)F)c1)c1cccc2ccccc12 [Compound K-2087, N-[(1R)-1-(1-naphthyl)ethyl]-N-(4-{[3-(trifluoromethyl)phenyl]thio}butyl)amine] | 87 nM | 1.325 mmol/L | 1.243 mmol/L | 1.197 mmol/L | 1.255 mmol/L | 
6 | C[C@@H](NCCCSc1ccc(C(F)(F)F)cc1)c1cccc2ccccc12 [Compound K-2240, N-[(1R)-1-(1-naphthyl)ethyl]-N-(3-{[4-(trifluoromethyl)phenyl]thio}propyl)amine] | 360 nM | 1.302 mmol/L | 1.272 mmol/L | 1.175 mmol/L | 1.230 mmol/L | 
7 | C[C@@H](NCCC(=O)N(Cc1ccccc1)Cc1ccc(Cl)cc1)c1cccc2ccccc12 [Compound K-2247, N1-benzyl-N1-(4-chlorobenzyl)-3-{[(1R)-1-(1-naphthyl)ethyl]amino}propanamide] | 130 nM | 1.378 mmol/L | 1.298 mmol/L | 1.175 mmol/L | 1.217 mmol/L | 
8 | C[C@@H](NCCC(=O)N(Cc1ccccc1)Cc1ccc(Cl)c(Cl)c1)c1cccc2ccccc12 [Compound K-2250, N1-benzyl-N1-(3,4-dichloro-benzyl)-3-{[(1R)-1-(1-naphthyl)ethyl]amino}propanamide] | 76 nM | 1.327 mmol/L | 1.225 mmol/L | 1.122 mmol/L | 1.203 mmol/L | 
9 | C[C@@H](NCCC(=O)N(Cc1ccc(Cl)cc1)Cc1ccccc1Cl)c1cccc2ccccc12 [Compound K-2262, N1-(2-chlorobenzyl)-N1-(4-chlorobenzyl)-3-{[(1R)-1-(1-naphthyl)ethyl]amino}propanamide] | 84 nM | 1.390 mmol/L | 1.260 mmol/L | 1.138 mmol/L | 1.142 mmol/L | 
10 | C[C@@H](NCCCCSc1ccc(F)cc1)c1cccc2ccccc12 [Compound K-2263, N-{4-[(4-fluorophenyl)thio]butyl}-N-[(1R)-1-(1-naphthyl)ethyl]amine] | 110 nM | 1.273 mmol/L | 1.237 mmol/L | 1.212 mmol/L | 1.308 mmol/L | 
11 | CC(NCCSc1cccc(C(F)(F)F)c1)c1cccc2ccccc12 (stereo not shown) [Compound K-2275] | 270 nM |  |  |  |  | 
12 | CC(NCCSc1cc(Cl)c(Cl)cc1Cl)c1cccc2ccccc12 (stereo not shown) [Compound K-2295] | 1360 nM |  |  |  |  | 
13 | COc1ccc(CN(Cc2ccc(O)cc2)C(=O)CCNC(C)c2cccc3ccccc23)cc1 (stereo not shown) [Compound K-2312] | 80 nM |  |  |  |  | 
14 | COc1ccc(SCCCCN[C@H](C)c2cccc3ccccc23)cc1 [Compound K-2314] | 290 nM |  |  |  |  | 
15 | Cc1ccc(C)c(SCCCCCCCCCCCCNC(C)c2cccc3ccccc23)c1 (stereo not shown) [Compound S-16] | 110 nM |  |  |  |  | 
16 | Cc1ccc(SCCCCNC(C)c2cccc3ccccc23)cc1C (stereo not shown) [Compound S-52] | 160 nM |  |  |  |  | 
17 | Cc1cc(C)cc(SCCNC(C)c2cccc3ccccc23)c1 (stereo not shown) [Compound S-64] | 98 nM |  |  |  |  | 
18 | Cc1cc(C)cc(SCCCCCCCN[C@H](C)c2cccc3ccccc23)c1 [Compound S-69] | 310 nM |  |  |  |  | 
19 | CC(NCCCCSc1ccc(Br)cc1)c1cccc2ccccc12 (stereo not shown) [Compound S-80] | 100 nM |  |  |  |  | 
20 | C[C@@H](NCCCCCCCSc1c(F)c(F)cc(F)c1F)c1cccc2ccccc12 [Compound S-165] | 150 nM |  |  |  |  | 
21 | CC(NCCCCCCCSc1c(Cl)c(Cl)nc(Cl)c1Cl)c1cccc2ccccc12 (stereo not shown) [Compound S-193] | 66 nM |  |  |  |  | 
22 | C[C@@H](NCCCCCCCCCCCCSc1c(F)c(F)c(C(F)(F)F)c(F)c1F)c1cccc2ccccc12 [Compound S-201] | 180 nM |  |  |  |  | 
23 | CC(C)c1ccccc1SCCNC(C)c1cccc2ccccc12 (stereo not shown) [Compound S-202] | 150 nM |  |  |  |  | 
